Measurements as given in ChEMBL document CHEMBL4808171, “Structure-Activity Relationship Study and Biological Evaluation of 2-(Disubstituted phenyl)-indole-5-propanoic Acid Derivatives as GPR40 Full Agonists” (J Med Chem, 2021).
pEC50: −log10 of the molar value. Activity calls are given as the source filed them. No cut-off for these calls is given here.

Tests used:
[1] = Tmax in CD-1 mouse at 30 mg/kg, po measured up to 8 hrs by LC-MS/MS analysis; type: ADME, organism-based; details: in vivo
[2] = Solubility of the compound in FaSSIF at 27 degC measured after 24 hrs; type: physicochemical; details: simulated gi fluid
[3] = AUC (0 to t) in CD-1 mouse at 10 mg/kg, po measured up to 8 hrs by LC-MS/MS analysis; type: ADME, organism-based; design: route oral, dose 10 mg/kg, time <=8; details: in vivo
[4] = tested on: STC1; assay: Induction of GLP-1 secretion in […] STC1 cells at 30 uM after 1 hrs by ELISA; type: functional, cell-based
[5] = AUC (0 to t) in CD-1 mouse at 90 mg/kg, po measured up to 8 hrs by LC-MS/MS analysis; type: ADME, organism-based; design: route oral, dose 90 mg/kg, time <=8; details: in vivo
[6] = biological target: T1, Free fatty acid receptor 1 (Homo sapiens, UniProt O14842); assay: Agonist activity at GPR40 (unknown origin) expressed in CHO cells co-expressing luc2P/SRE assessed as firefly luciferase activity at 10 uM incubated for 24 hrs hrs by Bright-Glo based serum response element (SRE) luciferase reporter assay relative to TAK875; type: functional, cell-based; details: filed as positive allosteric modulator
T1 sequence (O14842 whole entry): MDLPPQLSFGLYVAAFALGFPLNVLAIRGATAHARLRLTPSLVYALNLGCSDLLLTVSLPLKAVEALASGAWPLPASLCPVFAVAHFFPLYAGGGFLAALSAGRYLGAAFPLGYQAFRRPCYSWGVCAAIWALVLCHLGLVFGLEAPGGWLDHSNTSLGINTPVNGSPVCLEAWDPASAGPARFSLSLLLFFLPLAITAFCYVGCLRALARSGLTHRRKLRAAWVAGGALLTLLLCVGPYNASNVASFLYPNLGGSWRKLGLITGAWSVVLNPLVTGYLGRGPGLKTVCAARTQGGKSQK

[7] = biological target: Free fatty acid receptor 1 (Mus musculus) (UniProt Q76JU9); assay: Agonist activity at GPR40 in mouse MIN6 cells assessed as fold increase in 17 mM glucose-mediated insulin secretion at 1 to 10 uM incubated for 2 hrs in presence of GW1100 by ELISA relative to control; type: functional, cell-based; details: dose 1-10 µM
Sequence of Free fatty acid receptor 1 (Mus musculus) (Q76JU9 whole entry): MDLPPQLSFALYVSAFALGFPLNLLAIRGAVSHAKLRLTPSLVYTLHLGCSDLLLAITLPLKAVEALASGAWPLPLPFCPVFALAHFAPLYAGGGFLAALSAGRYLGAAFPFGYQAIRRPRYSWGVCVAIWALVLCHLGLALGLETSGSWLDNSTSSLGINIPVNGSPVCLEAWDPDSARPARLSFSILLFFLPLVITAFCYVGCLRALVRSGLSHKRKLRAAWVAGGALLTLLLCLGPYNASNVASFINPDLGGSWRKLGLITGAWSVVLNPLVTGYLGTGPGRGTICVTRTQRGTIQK

[8] = biological target: T1, Free fatty acid receptor 1; assay: Agonist activity at GPR40 (unknown origin) expressed in CHO cells co-expressing luc2P/SRE (Gq) assessed as firefly luciferase activity at 10 uM incubated for 24 hrs by Bright-Glo based serum response element (SRE) luciferase reporter assay; type: functional, cell-based; details: filed as positive allosteric modulator
[9] = Half life in CD-1 mouse at 90 mg/kg, po measured up to 8 hrs by LC-MS/MS analysis; type: ADME, organism-based; details: in vivo
[10] = biological target: T1, Free fatty acid receptor 1; assay: Agonist activity at GPR40 (unknown origin) expressed in CHO cells co-expressing luc2P/SRE assessed as induction of TAK875-induced firefly luciferase activity incubated for 24 hrs by Bright-Glo based serum response element (SRE) luciferase reporter assay; type: functional, cell-based; details: filed as positive allosteric modulator
[11] = biological target: T1, Free fatty acid receptor 1; assay: Agonist activity at GPR40 (unknown origin) expressed in CHO cells co-expressing luc2P/CRE (Gs) assessed as firefly luciferase activity at 10 uM incubated for 24 hrs by Bright-Glo based […] luciferase reporter assay; type: functional, cell-based
[12] = MRTlast in CD-1 mouse at 10 mg/kg, po measured up to 8 hrs by LC-MS/MS analysis; type: ADME, organism-based; details: in vivo
[13] = MRTlast in CD-1 mouse at 30 mg/kg, po measured up to 8 hrs by LC-MS/MS analysis; type: ADME, organism-based; details: in vivo
[14] = Metabolic stability in mouse liver microsomes assessed as intrinsic clearance; type: ADME, Microsome; details: read-out: CLH
[15] = Cmax in CD-1 mouse at 10 mg/kg, po measured up to 8 hrs by LC-MS/MS analysis; type: ADME, organism-based; design: route oral, dose 10 mg/kg, time <=8; details: in vivo
[16] = biological target: T1, Free fatty acid receptor 1; assay: Agonist activity at GPR40 (unknown origin) expressed in CHO cells co-expressing luc2P/SRE assessed as induction of DHA-induced firefly luciferase activity incubated for 24 hrs by Bright-Glo based serum response element (SRE) luciferase reporter assay; type: functional, cell-based; details: filed as positive allosteric modulator
[17] = Clast in CD-1 mouse at 30 mg/kg, po measured up to 8 hrs by LC-MS/MS analysis; type: ADME, organism-based; details: in vivo, read-out: Clast
[18] = tested on: Mus musculus; assay: Antidiabetic activity in C57BL/6J mouse assessed as reduction in plasma glucose level at 30 mg/kg, po pretreated 1 hr before glucose challenge measured up to 120 mins by Oral glucose tolerance test; type: functional; design: scale not given: the % may be the effect or the level left; details: 2 h
[19] = biological target: T2, Peroxisome proliferator-activated receptor gamma (Homo sapiens, UniProt P37231); assay: Agonist activity at human PPARgamma expressed in CHO cells assessed as increase in receptor transcriptional activity incubated for 24 hrs by dual luciferase reporter gene assay; type: cell-based
T2 sequence (P37231 whole entry): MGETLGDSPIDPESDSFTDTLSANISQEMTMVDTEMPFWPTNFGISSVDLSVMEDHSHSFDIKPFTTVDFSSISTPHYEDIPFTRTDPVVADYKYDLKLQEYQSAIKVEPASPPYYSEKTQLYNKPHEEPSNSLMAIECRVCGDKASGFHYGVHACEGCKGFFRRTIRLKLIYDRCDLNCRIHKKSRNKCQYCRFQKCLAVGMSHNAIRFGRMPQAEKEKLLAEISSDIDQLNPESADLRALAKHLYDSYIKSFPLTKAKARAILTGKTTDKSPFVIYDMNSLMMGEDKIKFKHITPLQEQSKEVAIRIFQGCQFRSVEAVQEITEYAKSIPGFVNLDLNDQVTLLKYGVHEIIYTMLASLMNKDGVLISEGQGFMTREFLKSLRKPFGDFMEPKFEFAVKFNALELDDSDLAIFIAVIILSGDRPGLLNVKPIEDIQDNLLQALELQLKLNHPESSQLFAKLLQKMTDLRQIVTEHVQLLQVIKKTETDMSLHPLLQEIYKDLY

[20] = Metabolic stability in human liver microsomes assessed as intrinsic clearance; type: ADME, Microsome; details: read-out: CLH
[21] = Cmax in CD-1 mouse at 90 mg/kg, po measured up to 8 hrs by LC-MS/MS analysis; type: ADME, organism-based; design: route oral, dose 90 mg/kg, time <=8; details: in vivo
[22] = Tlast in CD-1 mouse at 10 mg/kg, po measured up to 8 hrs by LC-MS/MS analysis; type: ADME, organism-based; details: in vivo
[23] = MRTlast in CD-1 mouse at 90 mg/kg, po measured up to 8 hrs by LC-MS/MS analysis; type: ADME, organism-based; details: in vivo
[24] = Half life in CD-1 mouse at 10 mg/kg, po measured up to 8 hrs by LC-MS/MS analysis; type: ADME, organism-based; details: in vivo
[25] = biological target: T3, Free fatty acid receptor 3 (Homo sapiens, UniProt O14843); assay: Agonist activity at FFAR3 (unknown origin); type: functional
T3 sequence (O14843 whole entry): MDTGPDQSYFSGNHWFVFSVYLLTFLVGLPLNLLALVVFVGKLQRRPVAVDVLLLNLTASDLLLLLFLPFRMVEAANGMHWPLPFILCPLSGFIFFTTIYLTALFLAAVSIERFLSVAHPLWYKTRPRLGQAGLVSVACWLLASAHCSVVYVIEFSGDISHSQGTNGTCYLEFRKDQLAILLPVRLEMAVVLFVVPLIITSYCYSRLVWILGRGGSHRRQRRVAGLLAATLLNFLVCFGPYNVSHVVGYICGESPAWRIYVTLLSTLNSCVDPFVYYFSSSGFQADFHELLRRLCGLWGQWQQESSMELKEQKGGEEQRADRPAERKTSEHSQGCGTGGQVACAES

[26] = biological target: Free fatty acid receptor 1 (Mus musculus) (UniProt Q76JU9); assay: Agonist activity at GPR40 in mouse MIN6 cells assessed as fold increase in 3 mM glucose-mediated insulin secretion at 10 uM incubated for 2 hrs by ELISA relative to control; type: functional, cell-based
[27] = Cmax in CD-1 mouse at 30 mg/kg, po measured up to 8 hrs by LC-MS/MS analysis; type: ADME, organism-based; design: route oral, dose 30 mg/kg, time <=8; details: in vivo
[28] = Clast in CD-1 mouse at 90 mg/kg, po measured up to 8 hrs by LC-MS/MS analysis; type: ADME, organism-based; details: in vivo, read-out: Clast

Tmax [1] [h] | solubility [2] | AUC(0-t) at 8 h [3] [ng·h/mL] | AUC(0-t) at 8 h [5] [ng·h/mL] | Emax [6] [%] | Activity [7] | Activity [8] | half-life [9] [h] | Activity [10] | pEC50 [11] | MRT last at 8 h [12] [h] | MRT last at 8 h [13] [h] | microsomal CLint [14] [µL/min/mg] | Cmax [15] [ng/mL] | Activity [16] | concentration at 8 h [17] [ng/mL] | microsomal CLint [20] [µL/min/mg] | Cmax [21] [ng/mL] | Compound | Activity [4] | Activity [18] [%] | also measured
0.44 | Soluble | 4860 | 9620 | 111 | inactive | Active | 1.4 | Active | 6.28 | 1.23 | 1.34 | ≤ 4 | 3740 | Active | 189 | ≤ 4 | 10300 | Cc1cc(F)ccc1-c1cc2cc(CCC(=O)O)ccc2[nH]1 | Active | 22.9 | pEC50 ([19]; read-out: EC50): 4.24; Tlast [22]: 8 h; MRT last at 8 h [23]: 1.14 h; half-life [24]: 1.3 h; pEC50 [25]: < 4.60; Activity [26]: inactive; Cmax [27]: 28700 ng/mL; concentration at 8 h [28]: 63 ng/mL
0.33 | Soluble | 114000 | 186000 | 103 | inactive | Active | 1.36 | Active | 4.89 | 2.06 | 1.24 | 10.5 | 52900 | Active | 62 | ≤ 4 | 65000 | Cc1ccc(C)c(-c2cc3cc(CCC(=O)O)ccc3[nH]2)c1 | Active | 14.4 | EC50 ([19]; cho): Not Active; Tlast [22]: 8 h; MRT last at 8 h [23]: 2.31 h; half-life [24]: 2.4 h; pEC50 [25]: < 4.60; Activity [26]: inactive; Cmax [27]: 24000 ng/mL; concentration at 8 h [28]: 2680 ng/mL
